One data set concerns KCL22-r xenograft. As to the kind of experiment: KCL22-r (dasatinib-refractory) xenograft study (FIG. 7). It is filed as in vivo, mouse. Conditions: dasatinib monotherapy. The procedure: Mice were maintained under specific pathogen-free conditions, and food and water were provided ad libitum. Female 6- to 8-week-old athymic BALB/c nude (NCr) nu/nu mice were used to inoculate Ph+ CML cell lines. For example, KCL22-s cells (5×10^6) were harvested on the day of use and injected in growth-factor-reduced Matrigel/PBS (50% final concentration in 100 μL). One flank was inoculated subcutaneously per mouse. Mice were monitored daily, weighed twice weekly, and caliper measurements began when tumors became visible. Animals were randomly assigned to treatment groups as indicated in FIG. 1 by an algorithm that assigns animals to groups to achieve best case distributions of mean tumor size with lowest possible standard deviation. Tumor volume was calculated by measuring two perpendicular diameters using the following formula: (L×w^2)/2, in which L and w refer to the length and width of the tumor diameter, respectively. When tumors reached an average size of 100 mm^3, mice were randomized and treated with vehicle (20% Dexolve) or indicated compounds using a daily or twice daily schedule by oral gavage. Results are expressed as mean and […]. […] Combination treatment with dasatinib renders more than 90% complete responses. […]

The nature of data set [1]: Toxicity / body weight observation in Ba/F3 allograft mice. Conditions: Ba/F3 T315I allograft NOD/SCID mice, oral gavage, single agents and combinations. Format: in vivo, mouse. From the text:
Mice were maintained under specific pathogen-free conditions, and food and water were provided ad libitum. A mouse Ba/F3 cell line that expresses a p210 […] fusion and T315I mutation was implanted subcutaneously (1×10^6 cells per mouse) into the right flank of female 6- to 8-week-old NOD/SCID mice. Mice were monitored daily, weighed up to three times weekly, and caliper measurements began when tumors became visible. Animals were randomly assigned to treatment groups as indicated in FIG. 2 by an algorithm that assigns animals to groups to achieve best case distributions of mean tumor size with lowest possible standard deviation. Tumor volume was calculated by measuring two perpendicular diameters using the following formula: (L×w^2)/2, in which L and w refer to the length and width of the tumor diameter, respectively. When tumors reached an average size of ~100 mm^3, mice were randomized and treated with vehicle, a SOS1 inhibitor of the present disclosure (Compound A), asciminib, ponatinib, Compound A and asciminib, or Compound A and ponatinib by oral gavage at the indicated dose and schedule.

`Cc1nc(Nc2ncc(C(=O)Nc3c(C)cccc3Cl)s2)cc(N2CCN(CCO)CC2)n1` [dasatinib]: the “response of KCL22-r model to dasatinib” value in the data set with KCL22-r xenograft is “dasatinib-refractory tumor”. On to `Cc1ccc(C(=O)Nc2ccc(CN3CCN(C)CC3)c(C(F)(F)F)c2)cc1C#Cc1cnc2cccnn12` [ponatinib], for which the “toxicity or body weight loss” value in data set [1] is recorded as “No apparent toxicity or body weight loss was observed”. As to `O=C(Nc1ccc(OC(F)(F)Cl)cc1)c1cnc(N2CC[C@@H](O)C2)c(-c2ccn[nH]2)c1` [asciminib], the “toxicity or body weight loss” value in data set [1] is listed as “No apparent toxicity or body weight loss was observed”.
